Experiments:
[1] = system: all animal species; details: cited from earlier work; for toxicity: background statement
[2] = cited from earlier work; for efficacy in treatment of ochratoxicosis: doses of the order of several grams per day
[3] = system: DNA; experiment: DNA adducts by postlabeling with ATP gamma 32P in organs (genotoxicity); assay type: in vivo, rats; details: OTA 289 μg/kg every 48 h, 3 weeks
Description: The animals used in this experiment are male rats of the Wistar strain weighing 160±10 g.
The aspartame is administered by gavage, at the same time as the ochratoxin A, every 48 hours for 3 weeks.
The control and treated rats are placed in a metabolic cage for 24 hours for urine sampling and then sacrificed.
The organs of the same animals were used for extraction of the DNA, which was analyzed by the technique of postlabeling with ATP gamma 32P in order to evaluate the genotoxicity by the presence of adducts with DNA bases.

[4] = system: human plasma proteins; experiment: OTA binding to human plasma proteins, condition (ii): OTA with or without aspartame in lower compartment; assay type: in vitro ADME
Description: (§1) A further study was performed in order to determine the effect of aspartame on OTA binding on human plasma proteins in vitro.
(§2) An in-vitro study was performed on plasma samples obtained from healthy human volunteers, from a French blood bank (Centre de transfusion sanguine in Bordeaux), using citrate as anticoagulant. Blood samples were centrifuged at 1800 g for 30 minutes. This pooled human plasma contained 41±3 g of proteins per liter.
(§3) Static diffusion cells (polypropylene, homemade according to the model provided by Nalgene, USA) containing two compartments (upper and lower) separated by a dialysing membrane having a 10 000 D exclusion limit (Sigma Chemical, USA) were used. This membrane allows OTA and aspartame diffusion and not protein diffusion.
(§4) A human plasma sample was placed in the upper compartment and a medium (RPMI 1640, Sigma chemical, USA) in the lower one.
(§5) The plasma binding properties of OTA were evaluated under two different conditions:
(ii) The upper compartment contained human plasma proteins only and OTA (20, 100 and 500 μg/ml) was added into the lower compartment alone or concommitantly with 10 μg/ml aspartame.
(§6) OTA concentration in the upper compartment was determined by HPLC (Mobile phase: methanol, acetonitrile, acetic acid, sodium acetate 5 mM (300: 300: 400: 14 v/v/v/v); injection volume 50 μl; flow rate 1 ml/min; run time for one cycle: 10 min and fluorescence detection (excitation at 340 nm and emission at 465 nm).
(§7) Before extraction of OTA from the plasma, all the studied samples of plasma, which had already fixed OTA, were dialysed against free OTA RPMI medium for at least 15 minutes, one or several times, until no more OTA was found in the lower compartment.
(§8) The results obtained under condition (i) as defined hereinabove are reported in Table I, whereas the results obtained under condition (ii) are reported in Table II.
Under condition (ii) (Table II), the aspartame was put in the same compartment as OTA in the non-plasmatic compartment to mimic the stomach (the ration OTA/aspartame=1.5 to 36).

[5] = system: human plasma proteins; experiment: OTA binding to human plasma proteins, condition (i): aspartame in upper (plasma) compartment; assay type: in vitro ADME
Description: as §1, §2, §3, §4, §5
(i) The aspartame at a concentration of 10 μg/ml was added in the upper compartment containing human plasma proteins before introducing OTA at three different concentrations (20, 100, and 500 μg/ml) in the lower compartment;
as §6, §7, §8

C[C@@H]1Cc2ccc(C(=O)N[C@@H](Cc3ccccc3)C(=O)O)c(O)c2C(=O)O1 [ochratoxin B]
toxicity [1]: does not seem to be toxic

C[C@@H]1Cc2c(Cl)cc(C(=O)N[C@@H](Cc3ccc(O)cc3)C(=O)O)c(O)c2C(=O)O1 [Tyrosine-OTA]
genotoxic effects ([1]; metabolite of OTA, Creppy et al., Arch. Toxicol. 64, 279-284 (1990)): seems to be one of the metabolites responsible for the genotoxic effects

N[C@@H](Cc1ccccc1)C(=O)O [phenylalanine]
action in chronic intoxication ([2]; chronic intoxication): very inadequate, if not non-existent | efficacy in treatment of ochratoxicosis [2]: not totally satisfactory | acute toxic effects of OTA and inhibition of protein synthesis ([2]; in vivo and in vitro): makes it possible to prevent the acute toxic effects and the inhibition of protein synthesis

C[C@@H]1Cc2c(Cl)cc(C(=O)N[C@@H](Cc3ccccc3)C(=O)O)c(O)c2C(=O)O1 [OTA, chlorodihydroisocoumarinylphenylalanine, reference compound]
DNA adducts in organs (liver, kidney, spleen, etc.), OTA-treated animals [3]: Adducts are detected in large numbers | Quantities of OTA bound to plasma proteins, OTA alone (Table II) ([4]; OTA 20 μg/ml, 30 min): 163 ± 42 ng/mL | Quantities of OTA bound to plasma proteins, OTA alone (Table II) ([4]; OTA 20 μg/ml, 60 min): 488 ± 41 ng/mL | Quantities of OTA bound to plasma proteins, OTA alone (Table II) ([4]; OTA 20 μg/ml, 120 min): 774 ± 43 ng/mL | Quantities of OTA bound to plasma proteins, OTA alone (Table II) ([4]; OTA 100 μg/ml, 30 min): 491 ± 39 ng/mL | Quantities of OTA bound to plasma proteins, OTA alone (Table II) ([4]; OTA 100 μg/ml, 60 min): 983 ± 48 ng/mL | Quantities of OTA bound to plasma proteins, OTA alone (Table II) ([4]; OTA 100 μg/ml, 120 min): 1296 ± 61 ng/mL | Quantities of OTA bound to plasma proteins, OTA alone (Table II) ([4]; OTA 500 μg/ml, 30 min): 539 ± 41 ng/mL | Quantities of OTA bound to plasma proteins, OTA alone (Table II) ([4]; OTA 500 μg/ml, 60 min): 1347 ± 92 ng/mL | Quantities of OTA bound to plasma proteins, OTA alone (Table II) ([4]; OTA 500 μg/ml, 120 min): 1899 ± 89 ng/mL | Quantities of OTA bound to plasma proteins, OTA alone (Table I) ([5]; OTA 20 μg/ml, 30 min): 215 ± 11 ng/mL | Quantities of OTA bound to plasma proteins, OTA alone (Table I) ([5]; OTA 20 μg/ml, 60 min): 431 ± 18 ng/mL | Quantities of OTA bound to plasma proteins, OTA alone (Table I) ([5]; OTA 20 μg/ml, 120 min): 772 ± 25 ng/mL | Quantities of OTA bound to plasma proteins, OTA alone (Table I) ([5]; OTA 100 μg/ml, 30 min): 442 ± 21 ng/mL | Quantities of OTA bound to plasma proteins, OTA alone (Table I) ([5]; OTA 100 μg/ml, 60 min): 739 ± 17 ng/mL | Quantities of OTA bound to plasma proteins, OTA alone (Table I) ([5]; OTA 100 μg/ml, 120 min): 1231 ± 17 ng/mL | Quantities of OTA bound to plasma proteins, OTA alone (Table I) ([5]; OTA 500 μg/ml, 30 min): 556 ± 15 ng/mL | Quantities of OTA bound to plasma proteins, OTA alone (Table I) ([5]; OTA 500 μg/ml, 60 min): 1175 ± 71 ng/mL | Quantities of OTA bound to plasma proteins, OTA alone (Table I) ([5]; OTA 500 μg/ml, 120 min): 1744 ± 112 ng/mL

O=C(O)O [sodium bicarbonate]
efficacy in treatment of ochratoxicosis [2]: still poor

CCOC(=O)[C@H](Cc1ccccc1)NC(=O)c1cc(Cl)c2c(c1O)C(=O)O[C@H](C)C2 [ochratoxin C, ethyl ester of ochratoxin A]
toxicity [1]: effects comparable to those of ochratoxin A
